How the values were obtained:
Assay in all cases: relative viability (nuclei count vs DMSO), 5 days (fraction); higher = more cells survive
Ruxolitinib + Dasatinib = compound: N#CC[C@H](C1CCCC1)n1cc(-c2ncnc3[nH]ccc23)cn1 [Ruxolitinib] + Cc1nc(Nc2ncc(C(=O)Nc3c(C)cccc3Cl)s2)cc(N2CCN(CCO)CC2)n1 [Dasatinib] (partner 0.075 µM)
In short: (§1)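 Relative viability is defined as nuclei in treated wells over nuclei in vehicle wells. Duplicate plates were run and medians reported. Lung cancer cell lines in 1536-well plates were dosed by pin tool one day after seeding, with one drug or with a fixed anchor-drug dose plus five library-drug doses (not always all listed) in √10 steps, and nuclei were counted after 5 days.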

Vismodegib + Vorinostat = compound: CS(=O)(=O)c1ccc(C(=O)Nc2ccc(Cl)c(-c3ccccn3)c2)c(Cl)c1 [Vismodegib] + O=C(CCCCCCC(=O)Nc1ccccc1)NO [Vorinostat] (partner 1 µM)
In short: as §1

VE-821 + Alpelisib = compound: CS(=O)(=O)c1ccc(-c2cnc(N)c(C(=O)Nc3ccccc3)n2)cc1 [VE-821] + Cc1nc(NC(=O)N2CCC[C@H]2C(N)=O)sc1-c1ccnc(C(C)(C)C(F)(F)F)c1 [Alpelisib] (partner 2 µM)
In short: as §1

Vismodegib + Trametinib = compound: CS(=O)(=O)c1ccc(C(=O)Nc2ccc(Cl)c(-c3ccccn3)c2)c(Cl)c1 [Vismodegib] + CC(=O)Nc1cccc(-n2c(=O)n(C3CC3)c(=O)c3c(Nc4ccc(I)cc4F)n(C)c(=O)c(C)c32)c1 [Trametinib] (partner 0.02 µM)
In short: as §1

Cell Line	relative viability (Ruxolitinib + Dasatinib; first compound 0.08 µM)	relative viability (Ruxolitinib + Dasatinib; first compound 0.253 µM)	relative viability (Ruxolitinib + Dasatinib; first compound 0.8 µM)	relative viability (Ruxolitinib + Dasatinib; first compound 2.53 µM)	relative viability (Ruxolitinib + Dasatinib; first compound 8 µM)	relative viability (Vismodegib + Vorinostat; first compound 0.08 µM)	relative viability (Vismodegib + Vorinostat; first compound 0.253 µM)	relative viability (Vismodegib + Vorinostat; first compound 0.8 µM)	relative viability (Vismodegib + Vorinostat; first compound 2.53 µM)	relative viability (Vismodegib + Vorinostat; first compound 8 µM)	relative viability (VE-821 + Alpelisib; first compound 0.08 µM)	relative viability (VE-821 + Alpelisib; first compound 0.253 µM)	relative viability (VE-821 + Alpelisib; first compound 0.8 µM)	relative viability (VE-821 + Alpelisib; first compound 2.53 µM)	relative viability (VE-821 + Alpelisib; first compound 8 µM)	relative viability (Vismodegib + Trametinib; first compound 0.08 µM)	relative viability (Vismodegib + Trametinib; first compound 0.253 µM)	relative viability (Vismodegib + Trametinib; first compound 0.8 µM)	relative viability (Vismodegib + Trametinib; first compound 2.53 µM)	relative viability (Vismodegib + Trametinib; first compound 8 µM)
NCI-H1666	0.869	0.757	0.838	0.76	0.528	1.04	0.957	1	1.01	1.06	1.03	1.02	0.887	0.926	0.58	0.816	0.852	0.836	0.899	0.904
EPLC-272H	0.399	0.402	0.42	0.243	0.134	0.398	0.368	0.49	0.329	0.509	0.998	0.858	0.694	1.23	0.807	0.276	0.269	0.246	0.282	0.297
NCI-H838	0.253	0.251	0.286	0.211	0.211	0.696	0.715	0.727	0.743	0.733	1.1	0.955	0.911	0.966	0.907	0.536	0.488	0.535	0.5	0.624
NCI-H2087	0.836	0.661	0.675	0.431	0.52	0.762	0.598	0.402	0.56	0.302	1.18	0.945	1.4	1.06	1.06	0.199	0.183	0.166	0.172	0.213
LC-2-ad	–	0.476	0.54	0.382	0.272	0.7	0.729	0.701	0.667	0.529	0.991	0.846	0.926	1.01	0.686	0.892	0.834	0.894	0.834	0.898
NCI-H2405	–	0.192	0.214	0.189	0.218	0.958	0.85	1	1.02	1.06	0.908	0.808	0.67	0.984	0.573	0.671	0.616	0.592	0.598	0.638
HCC-366	0.646	0.547	0.595	0.431	0.52	0.46	0.37	0.25	0.354	0.285	0.654	0.419	0.123	0.213	0.0456	0.348	0.292	0.334	0.37	0.343
NCI-H3122	0.852	0.725	0.932	0.634	0.286	0.986	0.994	0.994	1.09	0.992	0.949	0.746	0.774	0.871	0.78	0.247	0.254	0.216	0.247	0.202
LU99A	0.628	0.607	0.514	0.429	0.38	0.409	0.469	0.498	0.469	0.509	0.585	0.512	0.444	0.414	0.277	0.586	0.524	0.536	0.531	0.539
NCI-H1650	–	0.265	0.343	0.252	0.29	0.568	0.523	0.48	0.543	0.569	–	–	–	–	–	0.621	0.522	0.643	0.606	0.666
EMC-BAC-2	0.321	0.283	0.308	0.275	0.219	0.515	0.302	0.418	0.476	0.422	0.877	0.782	0.721	0.75	0.757	0.871	0.847	0.806	0.859	0.953
HCC-78	0.39	0.319	0.387	0.354	0.323	0.425	0.403	0.453	0.492	0.42	0.448	0.289	0.217	0.394	0.229	0.826	0.768	0.598	0.743	0.739
NCI-H1734	0.522	0.433	0.503	0.38	0.341	0.791	0.732	0.821	0.723	0.737	0.804	0.745	0.468	0.758	0.553	0.627	0.566	0.636	0.689	0.817
COR-L23	0.483	0.534	0.521	0.386	0.341	0.408	0.478	0.388	0.384	0.451	0.787	0.714	0.746	0.837	0.525	0.525	0.532	0.658	0.58	0.67
RERF-LC-KJ	0.886	0.742	0.942	0.737	0.635	0.669	0.603	0.78	0.772	0.659	0.898	0.774	0.664	0.799	0.712	0.847	0.823	0.84	0.826	0.862
NCI-H1437	0.294	0.363	0.354	0.458	0.236	0.824	0.756	0.806	0.732	0.804	1.02	0.901	0.693	0.993	0.705	0.462	0.485	0.493	0.535	0.536
